Data taken from patent US20250041461A1, “[177LU] LUTETIUM-PSMA I&T COMPOSITION AND DOSIMETRY, KIT, METHOD OF MAKING, AND METHOD OF USING THEREOF” (Curium US LLC, priority 2023, published 2025).
Like-named read-outs stand apart in the source and are kept apart here.

Columns and labels:
[1] = Radiochemical purity of formulated ^177Lu-PSMA I&T solution by HPLC (stability over time); type: physicochemical
Experimental: pH was estimated by pH paper. Radioactivity was measured in a dose calibrator. Radiochemical purity was determined by liquid chromatography with radioactivity detection and thin layer chromatography.
Radiochemical impurities are quantified by chromatographical methods (HPLC and TLC). Radiochemical purity determined by HPLC must not be less than 95.0%
The radiochemical purity and chemical properties (pH, impurities, visual properties) of [^177Lu]Lu-PSMA I&T in the formulation composition 3 were tested on the seven batches over a time span of 70 to 72 hours from the end-of-synthesis time. Stability samples of typical therapeutic dose radioactivity and volume were stored in different conditions covering typical storage, shipment and usage of the product, including temperatures ranging from +5° C. to +40° C.
Radiochemical purity of each solution was followed by HPLC up to 71-93 hours post-radiolabeling. All solutions were stored at 22.5° C.
Sample Analysis: The pH, radioactivity concentration (RAC), PSMA I&T content, and radiochemical purity (RCP) of the formulations were determined using a variety of analytical techniques described in the following sub-sections. A detailed record of the steps performed for each analysis can be found in Attachment 1-4.
Both the determination of the assay for PSMA I&T and related substances and the RCP of the formulations were determined via HPLC analysis. The system suitability of the instrument was established by triplicate injections of a 15 ppm PSMA I&T standard prior to sample analysis and a single 15 ppm check standard every 10 sample injections. A five-point standard curve of PSMA I&T concentrations between 0.5 and 25 ppm was used to determine the PSMA I&T concentration in the formulations.

[2] = cited from earlier work; for Absorbed Dose for Tumor Lesions, Liver metastases, Mean ± SD / Absorbed Dose for Tumor Lesions, Liver metastases, Range: n 2

SMILES: O=C([O-])CC[C@H](NC(=O)N[C@@H](CCCCNC(=O)CCCCCCC(=O)NCCCC[C@@H](NC(=O)[C@@H](Cc1ccccc1)NC(=O)[C@@H](Cc1ccc(O)c(I)c1)NC(=O)CC[C@H](C(=O)[O-])N1CCN(CC(=O)[O-])CCN(CC(=O)[O-])CCN(CC(=O)[O-])CC1)C(=O)[O-])C(=O)[O-])C(=O)[O-].[177Lu+3].[H+].[H+].[H+].[H+].[H+] [^177Lu-PSMA I&T, (3S,7S,26R,29R,32R,37R)-29-benzyl-32-(4-hydroxy-3-iodobenzyl)-5,13,20,28,31,34-hexaoxo-37-(4,7,10-tris(carboxymethyl)-1,4,7,10-tetraazacyclododecan-1-yl)-4,6,12,21,27,30,33-heptaazaheptatriacontane-1,3,7,26,37-pentacarboxylic acid; lutetium-177 (III)]
- radiochemical purity by HPLC ([1]; 10 ml high RAC formulation, 42.5 mg/ml ascorbic acid, 0 hours post EOS): at least 99%
- radiochemical purity by HPLC ([1]; 10 ml high RAC formulation, 42.5 mg/ml ascorbic acid, 46 hours post EOS): at least 93.3%
- radiochemical purity by HPLC ([1]; 20 ml low RAC formulation, 31 mg/ml ascorbic acid, 0 hours post EOS): at least 99.1%
- radiochemical purity ([1]; decreased strength (0.5 GBq/mL), 72 hours post-end-of-synthesis): above 95%
- radiochemical stability among the formulations of Example 3 ([1]; low RAC solution of pH 4.5 and ascorbic acid concentration of 31 mg/ml): highest radiochemical stability
- Absorbed Dose, Kidneys, Mean ± SD ([2]; First cycle (n = 15)): 0.71 ± 0.25 Gy/GBq
- Absorbed Dose, Kidneys, Range ([2]; First cycle (n = 15)): 0.33-1.22 Gy/GBq
- Absorbed Dose, Lacrimal glands, Mean ± SD ([2]; First cycle (n = 15)): 3.8 ± 1.5 Gy/GBq
- Absorbed Dose, Lacrimal glands, Range ([2]; First cycle (n = 15)): 1.68-7.03 Gy/GBq
- Absorbed Dose, Liver, Mean ± SD ([2]; First cycle (n = 15)): 0.12 ± 0.07 Gy/GBq
- Absorbed Dose, Liver, Range ([2]; First cycle (n = 15)): 0.05-0.26 Gy/GBq
- Absorbed Dose, Parotid glands, Mean ± SD ([2]; First cycle (n = 15)): 0.56 Gy/GBq
- Absorbed Dose, Parotid glands, Range ([2]; First cycle (n = 15)): 0.25-0.84 Gy/GBq
- Absorbed Dose, Submandibular glands, Mean ± SD ([2]; First cycle (n = 15)): 0.54 ± 0.29 Gy/GBq
- Absorbed Dose, Submandibular glands, Range ([2]; First cycle (n = 15)): 0.25-1.35 Gy/GBq
- Effective Dose, Whole body, Mean ± SD ([2]; First cycle (n = 15)): 0.05 Sv/GBq
- Effective Dose, Whole body, Range ([2]; First cycle (n = 15)): 0.02-0.11 Sv/GBq
- Absorbed Dose for Tumor Lesions, Lung metastases, Mean ± SD ([2]; First cycle, n 1): 2.7 Gy/GBq
- Absorbed Dose for Tumor Lesions, Liver metastases, Mean ± SD ([2]; First cycle): 1.7 Gy/GBq
- Absorbed Dose for Tumor Lesions, Liver metastases, Range ([2]; First cycle): 0.85-2.59 Gy/GBq
- Absorbed Dose for Tumor Lesions, Lymph node metastases, Mean ± SD ([2]; First cycle, n 5): 2.6 ± 0.89 Gy/GBq
- Absorbed Dose for Tumor Lesions, Lymph node metastases, Range ([2]; First cycle, n 5): 1.63-3.76 Gy/GBq
- Absorbed Dose for Tumor Lesions, Bone metastases, Mean ± SD ([2]; First cycle, n 33): 3.8 ± 3.1 Gy/GBq
- Absorbed Dose for Tumor Lesions, Bone metastases, Range ([2]; First cycle, n 33): 0.22-12.03 Gy/GBq
- Absorbed Dose for Tumor Lesions, All metastases, Mean ± SD ([2]; First cycle, n 41): 3.5 ± 2.9 Gy/GBq
- Absorbed Dose for Tumor Lesions, All metastases, Range ([2]; First cycle, n 41): 0.22-12.03 Gy/GBq
- Absorbed Dose for Tumor Lesions, Liver metastases, Mean ± SD ([2]; Fourth cycle): 1.13 Gy/GBq
- Absorbed Dose for Tumor Lesions, Liver metastases, Range ([2]; Fourth cycle): 0.74-1.51 Gy/GBq
- Absorbed Dose for Tumor Lesions, Bone metastases, Mean ± SD ([2]; Fourth cycle, n 10): 2.7 ± 2.3 Gy/GBq
- Absorbed Dose for Tumor Lesions, Bone metastases, Range ([2]; Fourth cycle, n 10): 1.04-7.60 Gy/GBq
- Absorbed Dose for Tumor Lesions, All metastases, Mean ± SD ([2]; Fourth cycle, n 12): 2.4 ± 2.2 Gy/GBq
- Absorbed Dose for Tumor Lesions, All metastases, Range ([2]; Fourth cycle, n 12): 0.74-7.60 Gy/GBq
- Absorbed Dose, Kidneys, Mean ± SD ([2]; Fourth cycle): 0.69 ± 0.18 Gy/GBq
- Absorbed Dose, Kidneys, Range ([2]; Fourth cycle): 0.45-0.95 Gy/GBq
- Absorbed Dose, Lacrimal glands, Mean ± SD ([2]; Fourth cycle): 3.4 ± 1.7 Gy/GBq
- Absorbed Dose, Lacrimal glands, Range ([2]; Fourth cycle): 1.75-5.35 Gy/GBq
- Absorbed Dose, Liver, Mean ± SD ([2]; Fourth cycle): 0.11 ± 0.04 Gy/GBq
- Absorbed Dose, Liver, Range ([2]; Fourth cycle): 0.07-0.17 Gy/GBq
- Absorbed Dose, Parotid glands, Mean ± SD ([2]; Fourth cycle): 0.50 Gy/GBq
- Absorbed Dose, Parotid glands, Range ([2]; Fourth cycle): 0.32-0.58 Gy/GBq
- Absorbed Dose, Submandibular glands, Mean ± SD ([2]; Fourth cycle): 0.66 ± 0.53 Gy/GBq
- Absorbed Dose, Submandibular glands, Range ([2]; Fourth cycle): 0.24-1.58 Gy/GBq
- Effective Dose, Whole body, Mean ± SD ([2]; Fourth cycle): 0.05 Sv/GBq
- Effective Dose, Whole body, Range ([2]; Fourth cycle): 0.03-0.11 Sv/GBq
- Absorbed Dose, Kidneys, Mean ± SD ([2]; Overall (n = 34)): 0.72 ± 0.21 Gy/GBq
- Absorbed Dose, Kidneys, Range ([2]; Overall (n = 34)): 0.33-1.22 Gy/GBq
- Absorbed Dose, Lacrimal glands, Mean ± SD ([2]; Overall (n = 34)): 3.8 ± 1.4 Gy/GBq
- Absorbed Dose, Lacrimal glands, Range ([2]; Overall (n = 34)): 1.68-7.03 Gy/GBq
- Absorbed Dose, Liver, Mean ± SD ([2]; Overall (n = 34)): 0.12 ± 0.06 Gy/GBq
- Absorbed Dose, Liver, Range ([2]; Overall (n = 34)): 0.05-0.26 Gy/GBq
- Absorbed Dose, Parotid glands, Mean ± SD ([2]; Overall (n = 34)): 0.55 Gy/GBq
- Absorbed Dose, Parotid glands, Range ([2]; Overall (n = 34)): 0.25-0.84 Gy/GBq
- Absorbed Dose, Submandibular glands, Mean ± SD ([2]; Overall (n = 34)): 0.64 ± 0.40 Gy/GBq
- Absorbed Dose, Submandibular glands, Range ([2]; Overall (n = 34)): 0.24-1.70 Gy/GBq
- Effective Dose, Whole body, Mean ± SD ([2]; Overall (n = 34)): 0.06 Sv/GBq
